{"source": "patent US20090291964A1", "about": "“Potentiators of Antibacterial Activity” (priority 2003, published 2009)", "assay_type_in_all_cases": "cell-based", "key": {"[1]": {"system": "S. aureus SA-1199B (NorA overproducing)", "test": "MIC of fluoroquinolones with and without EPI", "procedure,_shortened": "(§1)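 Fluoroquinolone MICs determined with and without efflux pump inhibitor in S. aureus SA-1199B (NorA overproducer with A116E GrlA mutation) and SA-K2068 (SA-8325-4 with a non-NorA multidrug efflux pump overproducing mutation). All assays contained 1% DMSO final.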"}, "S. pneumoniae ATCC 10015 [2]": {"system": "S. pneumoniae ATCC 10015", "test": "MIC by NCCLS microdilution, EtBr/EPI with and without EPI", "settings": "for MIC: Streptococcus pneumoniae, ATCC10015", "description": "(§2) 3% sterile laked horse blood (Quad Five, Ryegate, Mont.) was added to assays for E. faecalis and S. Pneumoniae. A final concentration of 1% DMSO was present in all assays.\n(§3) EtBr is a general substrate for many different efflux pumps in bacteria. Markham et al., “Multiple Novel Inhibitors of the NorA Multidrug Transporter of Staphylococcus aureus”, Antimicrob. Agents Chemother. 43:2404-2408 (1999). Since EtBr is a non-specific DNA intercalator, the only known mechanism of resistance to EtBr is via efflux. Markham et al., “Multiple Novel Inhibitors of the NorA Multidrug Transporter of Staphylococcus aureus”, Antimicrob. Agents Chemother. 43:2404-2408 (1999)."}, "E. faecalis ATCC 29212 [3]": {"system": "E. faecalis ATCC 29212", "test": "MIC by NCCLS microdilution, EtBr/EPI with and without EPI", "settings": "E. faecalis ATCC 29212; for MIC: Enterococcus faecalis, ATCC29212", "description": "as §2, §3"}, "[4]": {"system": "S. aureus SA-K2068 (non-NorA multidrug efflux pump overproducing)", "test": "microbe, parasite or virus in culture", "procedure,_shortened": "as §1"}, "S. aureus ATCC 29213 [5]": {"system": "S. aureus ATCC 29213", "test": "MIC by NCCLS microdilution, antibacterial agents with and without EPI", "settings": "for MIC: Staphylococcus aureus, ATCC29213, S. aureus ATCC 29213", "procedure,_shortened": "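Efflux pump inhibitors were combined at fixed concentrations with antibiotics from several classes and tested against Staphylococcus aureus ATCC 29213 to compare minimum inhibitory concentrations with and without inhibitor. The inhibitor level was tied to its minimal effective concentration for ethidium bromide, a general efflux pump substrate. All assays contained a final concentration of 1% DMSO.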"}, "S. pneumoniae ATCC 10015 [6]": {"system": "S. pneumoniae ATCC 10015", "test": "Minimal effective concentration (MEC) of EPI for EtBr", "settings": "lowest amount of EPI which produces the maximum effect on the MIC of ethidium bromide (reserpine: maximal subinhibitory concentration)", "description": "(§4) The MEC was determined as the minimal concentration of EPI that produced the maximal reduction in substrate MIC.\n(§5) The minimum effective concentration (MEC) for inhibition of EtBr efflux was determined in S. aureus, E. faecalis and S. pneumoniae for A-106 and C-9; reserpine was used as a comparator (Table 1)."}, "S. aureus ATCC 29213 [7]": {"system": "S. aureus ATCC 29213", "test": "Minimal effective concentration (MEC) of EPI for EtBr", "settings": "S. aureus ATCC 29213; lowest amount of EPI which produces the maximum effect on the MIC of ethidium bromide", "description": "as §4, §5"}, "E. faecalis ATCC 29212 [8]": {"system": "E. faecalis ATCC 29212", "test": "Minimal effective concentration (MEC) of EPI for EtBr", "settings": "lowest amount of EPI which produces the maximum effect on the MIC of ethidium bromide", "description": "as §4, §5"}, "[9]": {"settings": "S. aureus SA-1199B, EPI at 4X the MEC for EtBr, VX-710 at 100 μg/ml"}, "[10]": {"settings": "Staphylococcus aureus, read-out: MIC of EtBr with EPI"}, "[11]": {"settings": "EPI alone, read-out: MIC of EPI"}, "[12]": {"settings": "EPIs used at the MEC, except VX-710 at 100 μg/ml, read-out: MIC of EtBr with EPI"}, "[13]": {"settings": "S. aureus K2068, EPI at 4X the MEC for EtBr, VX-710 at 100 μg/ml"}, "[14]": {"settings": "S. aureus ATCC 29213, EPI at 4X the MEC for EtBr, VX-710 at 100 μg/ml"}}, "note": "Like-named read-outs stand apart in the source and are kept apart here. Marks after values point to notes of the source that are not given here."}
{"smiles": "COC(=O)[C@H]1[C@H]2C[C@@H]3c4[nH]c5cc(OC)ccc5c4CCN3C[C@H]2C[C@@H](OC(=O)c2cc(OC)c(OC)c(OC)c2)[C@@H]1OC", "note": "[reserpine, reference compound]", "values": [{"measurement": "MIC of gatifloxacin with EPI", "setting": "[1]; S. aureus SA-1199B (NorA overproducer) (Table 4)", "value": 0.25, "unit": "µg/mL"}, {"measurement": "MIC of ciprofloxacin with EPI", "setting": "[1]; [9]", "value": 0.5, "unit": "µg/mL"}, {"measurement": "MIC of gatifloxacin with EPI", "setting": "[1]; [9]", "value": 0.125, "unit": "µg/mL"}, {"measurement": "MIC of gentamicin with EPI", "setting": "[1]; [9]", "value": 0.125, "unit": "µg/mL"}, {"measurement": "MIC of levofloxacin with EPI", "setting": "[1]; [9]", "value": 0.5, "unit": "µg/mL"}, {"measurement": "MIC of norfloxacin with EPI", "setting": "[1]; [9]", "value": 4, "unit": "µg/mL"}, {"measurement": "MIC", "setting": "[1]; [10]", "value": 0.8, "unit": "µg/mL"}, {"measurement": "Fold-reduction in MIC", "setting": "[1]; gatifloxacin, S. aureus SA-1199B (NorA overproducer)", "value": 2}, {"measurement": "Fold-reduction in EtBr MIC", "setting": "S. pneumoniae ATCC 10015 [2]; S. pneumoniae ATCC 10015, EPIs used at the MEC, except VX-710 at 100 μg/ml", "value": 50}, {"measurement": "reduction in the MIC of EtBr", "setting": "S. pneumoniae ATCC 10015 [2]; S. pneumoniae, reserpine 25 μg/ml (maximal subinhibitory concentration)", "value": 50, "unit": "fold"}, {"measurement": "MIC", "setting": "S. pneumoniae ATCC 10015 [2]; S. pneumoniae ATCC 10015, EPI alone, read-out: MIC of EPI", "value": 50, "unit": "µg/mL"}, {"measurement": "MIC", "setting": "S. pneumoniae ATCC 10015 [2]; S. pneumoniae ATCC 10015, EPIs used at the MEC, except VX-710 at 100 μg/ml, read-out: MIC of EtBr with EPI", "value": 0.04, "unit": "µg/mL"}, {"measurement": "MIC", "setting": "S. pneumoniae ATCC 10015 [2]; S. pneumoniae, read-out: MIC of EPI alone", "value": 50, "unit": "µg/mL"}, {"measurement": "Fold-reduction in EtBr MIC", "setting": "E. faecalis ATCC 29212 [3]; EPIs used at the MEC, except VX-710 at 100 μg/ml", "value": 8}, {"measurement": "MIC", "setting": "E. faecalis ATCC 29212 [3]; [11]", "value": "> 100", "unit": "µg/mL"}, {"measurement": "MIC", "setting": "E. faecalis ATCC 29212 [3]; [12]", "value": 0.8, "unit": "µg/mL"}, {"measurement": "MIC of gatifloxacin with EPI", "setting": "[4]; S. aureus K2068 (nonNorA pump overproducer) (Table 4)", "value": 0.25, "unit": "µg/mL"}, {"measurement": "MIC of ciprofloxacin with EPI", "setting": "[4]; [13]", "value": 0.5, "unit": "µg/mL"}, {"measurement": "MIC of gatifloxacin with EPI", "setting": "[4]; [13]", "value": 0.25, "unit": "µg/mL"}, {"measurement": "MIC of gentamicin with EPI", "setting": "[4]; [13]", "value": 0.063, "unit": "µg/mL"}, {"measurement": "MIC of levofloxacin with EPI", "setting": "[4]; [13]", "value": 0.5, "unit": "µg/mL"}, {"measurement": "MIC of norfloxacin with EPI", "setting": "[4]; [13]", "value": 1, "unit": "µg/mL"}, {"measurement": "MIC", "setting": "[4]; [10]", "value": 1.6, "unit": "µg/mL"}, {"measurement": "Fold-reduction in MIC", "setting": "[4]; gatifloxacin, S. aureus K2068 (nonNorA pump overproducer)", "value": 4}, {"measurement": "MIC of gatifloxacin with EPI", "setting": "S. aureus ATCC 29213 [5]; S. aureus ATCC 29213 (Table 4)", "value": 0.125, "unit": "µg/mL"}, {"measurement": "MIC of ciprofloxacin with EPI", "setting": "S. aureus ATCC 29213 [5]; [14]", "value": 0.063, "unit": "µg/mL"}, {"measurement": "MIC of gatifloxacin with EPI", "setting": "S. aureus ATCC 29213 [5]; [14]", "value": 0.063, "unit": "µg/mL"}, {"measurement": "MIC of gentamicin with EPI", "setting": "S. aureus ATCC 29213 [5]; [14]", "value": 0.125, "unit": "µg/mL"}, {"measurement": "MIC of levofloxacin with EPI", "setting": "S. aureus ATCC 29213 [5]; [14]", "value": 0.125, "unit": "µg/mL"}, {"measurement": "MIC of norfloxacin with EPI", "setting": "S. aureus ATCC 29213 [5]; [14]", "value": 0.25, "unit": "µg/mL"}, {"measurement": "Fold-reduction in EtBr MIC", "setting": "S. aureus ATCC 29213 [5]; S. aureus ATCC 29213, EPIs used at the MEC, except VX-710 at 100 μg/ml", "value": 4}, {"measurement": "MIC", "setting": "S. aureus ATCC 29213 [5]; [11]", "value": "> 100", "unit": "µg/mL"}, {"measurement": "MIC", "setting": "S. aureus ATCC 29213 [5]; EPI at 4X the MEC for EtBr, VX-710 at 100 μg/ml, read-out: MIC of EtBr with EPI", "value": 0.4, "unit": "µg/mL"}, {"measurement": "MIC", "setting": "S. aureus ATCC 29213 [5]; [12]", "value": 1.6, "unit": "µg/mL"}, {"measurement": "Fold-reduction in MIC", "setting": "S. aureus ATCC 29213 [5]; gatifloxacin, S. aureus ATCC 29213", "value": 1}, {"measurement": "MEC of EPI", "setting": "S. pneumoniae ATCC 10015 [6]", "value": "25^c μg/ml"}, {"measurement": "MEC of EPI", "setting": "S. aureus ATCC 29213 [7]", "value": 6.3, "unit": "µg/mL"}, {"measurement": "MEC of EPI", "setting": "E. faecalis ATCC 29212 [8]", "value": "≧100 μg/ml"}]}
